“Also recorded” adds a separate entry of the source.
Key:
[1] = In vitro stability of ^89Zr complexes in formulation buffer (radio-TLC / iTLC); type: physicochemical; conditions: formulation buffer (3 mM gentisic acid + 0.25 M NaOAc, pH 5.5), 37 °C
Procedure: (§1) Stability studies were performed on ^89Zr labeled AAZTHAS and AAZTHAG to test the effect of the pendant arm length on complex stability. The stability of the two ^89Zr-complexes was investigated by radio-TLC after incubation for 72 h at 37 °C in formulation buffer, EDTA 5 mM (1000-fold excess), and human serum (HS).
(§2) After the purification step and analysis of the radioactive complex via radio-HPLC, the stability assessment of the complex at different time points and in different solutions was carried out. ^89Zr-AAZTHAS and ^89Zr-AAZTHAG were dissolved in formulation buffer, EDTA 5 mM, and human serum in 1:5 v/v ratio and were incubated at 37 °C up to 96 h. […] At each time point the stability was evaluated by radio-iTLC (Elution solution 1) using an instant thin-layer chromatographic strip (iTLC, Agilent).

[2] = In vitro stability of ^89Zr complexes in EDTA solution (transchelation challenge, radio-TLC / iTLC); type: physicochemical; parameters: dose or concentration left out as unconfirmed; conditions: 37 °C
Procedure: Stability studies were performed on ^89Zr labeled AAZTHAS and AAZTHAG to test the effect of the pendant arm length on complex stability. […]
as §2

[3] = In vitro stability of ^89Zr complexes in human serum (radio-TLC / iTLC); type: in vitro ADME; conditions: for % of ^89Zr complexed over total activity: human serum (HS)
Procedure: as §1, §2

[4] = Small animal PET/CT static scans at different time points; type: in vivo, healthy female nude mice; conditions: six time points 30 min to 24 h, n = 3
Procedure: Based on the good preliminary in vitro stability results, we investigated the behavior of ^89Zr-AAZTHAG in vivo in healthy female nude mice (n = 3) by acquiring PET/CT images at six different time points (30 min, 3 h, 6 h, 9 h, 12 h, and 24 h), and mice were then sacrificed 24 h p.i. to perform a biodistribution study.
(§3) In order to study the biodistribution and the in vivo stability of the ^89Zr-AAZTHAG, 8 weeks old pathogen-free female athymic Nude-Foxn1nu/nu mice (Charles River Laboratories, Sulzfeld, Germany) (n = 3) were injected via a catheter in the tail vein with 2.9 ± 0.1 MBq of ^89Zr-AAZTHAG in 300 μL NaCl 0.9% solution, and imaged at different time points (30 min, 3 h, 6 h, 9 h, 12 h, 24 h) via PET/CT static acquisition using an Inveon Small Animal PET/CT scanner (Siemens, Knoxville, TN, USA).

[5] = Ex vivo biodistribution (tracer accumulation in organs, γ-counter) 24 h p.i.; parameters: species or system female athymic Nude-Foxn1nu/nu mice; conditions: i.v. tail vein, n = 3, ± SD
Procedure: as §3
Biodistribution studies were also performed to assess the in vivo distribution of the ^89Zr-AAZTHAG complex and evaluate its in vivo stability. After sacrifice, the mice by anesthesia, blood, and other selected organs were collected, weighed, and the activity was measured by a γ-counter. The tracer accumulation in selected organs was expressed as a percentage of injected dose per gram of tissue (%ID/g).

CN(O)C(=O)CCC(=O)NC1(C)CN(C(=O)CCC(=O)N(C)O)CCN(C(=O)CCC(=O)N(C)O)C1 [^89Zr-AAZTHAS, metal not drawn]
% of ^89Zr complexed over total activity ([1]; Day 0): 71.0%
% of ^89Zr complexed over total activity ([1]; Day 1): 63.3%
% of ^89Zr complexed over total activity ([1]; Day 2): 62.3%
% of ^89Zr complexed over total activity ([1]; Day 3 (72 h)): 42%
% of ^89Zr complexed over total activity ([2]; Day 0): 15.1%
% of ^89Zr complexed over total activity ([2]; Day 1): 1.0%
% of ^89Zr complexed over total activity ([2]; Day 2): 1.6%
% of ^89Zr complexed over total activity ([3]; 37 °C, Day 0): 71.0%
% of ^89Zr complexed over total activity ([3]; 37 °C, Day 1): 76.8%
% of ^89Zr complexed over total activity ([3]; 37 °C, Day 2): 59.2%
% of ^89Zr complexed over total activity ([3]; 37 °C, Day 3 (72 h)): 46%
Behaviour of the complex on incubation in HS (precipitation) ([3]; human serum, 37 °C): tends to precipitate over time; also recorded: precipitates

CN(O)C(=O)CCCC(=O)NC1(C)CN(C(=O)CCCC(=O)N(C)O)CCN(C(=O)CCCC(=O)N(C)O)C1 [^89Zr-AAZTHAG, metal not drawn]
% of ^89Zr complexed over total activity ([1]; Day 0): 91.5 ± 10.6%
% of ^89Zr complexed over total activity ([1]; Day 1): 83.0 ± 6.5%
% of ^89Zr complexed over total activity ([1]; Day 2): 78.1 ± 13.8%
% of ^89Zr complexed over total activity ([1]; Day 3 (72 h)): 73 ± 5%
% of ^89Zr complexed over total activity ([1]; Day 3 (72 h), listed as AAZTHAG): 73.0 ± 5.2%
% of ^89Zr complexed over total activity ([2]; Day 0): 30.6 ± 30.3%
% of ^89Zr complexed over total activity ([2]; Day 1): 4.4 ± 3.9%
% of ^89Zr complexed over total activity ([2]; Day 2): 2.4 ± 0.1%
% of ^89Zr complexed over total activity ([2]; Day 3): 3.2 ± 2.6%
Excretion route seen in PET/CT images [4]: hepatobiliary and renal excretion
Signal in bones during PET acquisition (release of Zr-89) [4]: low signal in bones
Radioactivity accumulated in bladder ([5]; Bladder): 0.049 ± 0.010 %ID/g
Radioactivity accumulated in blood ([5]; Blood): 0.007 ± 0.005 %ID/g
Radioactivity accumulated in brain ([5]; Brain): 0.002 ± 0.001 %ID/g
Radioactivity accumulated in femur ([5]; Femur): 0.193 ± 0.108 %ID/g
Radioactivity accumulated in heart ([5]; Heart): 0.010 ± 0.004 %ID/g
Radioactivity accumulated in kidney ([5]; Kidney): 0.575 ± 0.199 %ID/g
Radioactivity accumulated in large intestine ([5]; Large Intestine): 0.020 ± 0.010 %ID/g
Radioactivity accumulated in liver ([5]; Liver): 0.041 ± 0.010 %ID/g
Radioactivity accumulated in lung ([5]; Lung): 0.021 ± 0.007 %ID/g
Radioactivity accumulated in muscle ([5]; Muscle): 0.006 ± 0.002 %ID/g
Radioactivity accumulated in pancreas ([5]; Pancreas): 0.016 ± 0.008 %ID/g
Radioactivity accumulated in small intestine ([5]; Small Intestine): 0.012 ± 0.006 %ID/g
Radioactivity accumulated in spleen ([5]; Spleen): 0.029 ± 0.005 %ID/g
Radioactivity accumulated in stomach ([5]; Stomach): 0.014 ± 0.005 %ID/g
Radioactivity accumulated in tail ([5]; Tail): 0.040 ± 0.013 %ID/g
Time for which the ^89Zr-complex is stable in HS ([3]; human serum): at least 4 h
% of ^89Zr complexed over total activity ([3]; 37 °C, Day 0): 92.0 ± 11.3%
% of ^89Zr complexed over total activity ([3]; 37 °C, Day 1): 77.7 ± 18.6%
% of ^89Zr complexed over total activity ([3]; 37 °C, Day 2): 76.9 ± 15.4%
% of ^89Zr complexed over total activity ([3]; 37 °C, Day 3 (72 h)): 87 ± 5%
% of ^89Zr complexed over total activity ([3]; 37 °C, Day 3 (72 h), listed as AAZTHAG): 86.4 ± 5.5%

Reference: PMC8512011, “A Semi Rigid Novel Hydroxamate AMPED-Based Ligand for ^89Zr PET Imaging” (Molecules, 2021)
